US20140024548A1, “DRUG SELECTION FOR MALIGNANT CANCER THERAPY USING ANTIBODY-BASED ARRAYS” (NESTEC S.A., priority 2010, published 2014)

Columns and labels:
[1] = in vivo; cited from earlier work
[2] = test system: CYP450; conditions: cited from earlier work
[3] = test system: human xenograft models; conditions: dosed orally; cited from earlier work
[4] = biological target: T1, cMET (Homo sapiens, UniProt P08581); assay: CEER detection of activated cMET in HCC827 cells treated with HGF; format: cell-based; conditions: HGF stimulation, FIG. 10B
T1 construct: host or cells: HCC827
T1 sequence (P08581 25-1390): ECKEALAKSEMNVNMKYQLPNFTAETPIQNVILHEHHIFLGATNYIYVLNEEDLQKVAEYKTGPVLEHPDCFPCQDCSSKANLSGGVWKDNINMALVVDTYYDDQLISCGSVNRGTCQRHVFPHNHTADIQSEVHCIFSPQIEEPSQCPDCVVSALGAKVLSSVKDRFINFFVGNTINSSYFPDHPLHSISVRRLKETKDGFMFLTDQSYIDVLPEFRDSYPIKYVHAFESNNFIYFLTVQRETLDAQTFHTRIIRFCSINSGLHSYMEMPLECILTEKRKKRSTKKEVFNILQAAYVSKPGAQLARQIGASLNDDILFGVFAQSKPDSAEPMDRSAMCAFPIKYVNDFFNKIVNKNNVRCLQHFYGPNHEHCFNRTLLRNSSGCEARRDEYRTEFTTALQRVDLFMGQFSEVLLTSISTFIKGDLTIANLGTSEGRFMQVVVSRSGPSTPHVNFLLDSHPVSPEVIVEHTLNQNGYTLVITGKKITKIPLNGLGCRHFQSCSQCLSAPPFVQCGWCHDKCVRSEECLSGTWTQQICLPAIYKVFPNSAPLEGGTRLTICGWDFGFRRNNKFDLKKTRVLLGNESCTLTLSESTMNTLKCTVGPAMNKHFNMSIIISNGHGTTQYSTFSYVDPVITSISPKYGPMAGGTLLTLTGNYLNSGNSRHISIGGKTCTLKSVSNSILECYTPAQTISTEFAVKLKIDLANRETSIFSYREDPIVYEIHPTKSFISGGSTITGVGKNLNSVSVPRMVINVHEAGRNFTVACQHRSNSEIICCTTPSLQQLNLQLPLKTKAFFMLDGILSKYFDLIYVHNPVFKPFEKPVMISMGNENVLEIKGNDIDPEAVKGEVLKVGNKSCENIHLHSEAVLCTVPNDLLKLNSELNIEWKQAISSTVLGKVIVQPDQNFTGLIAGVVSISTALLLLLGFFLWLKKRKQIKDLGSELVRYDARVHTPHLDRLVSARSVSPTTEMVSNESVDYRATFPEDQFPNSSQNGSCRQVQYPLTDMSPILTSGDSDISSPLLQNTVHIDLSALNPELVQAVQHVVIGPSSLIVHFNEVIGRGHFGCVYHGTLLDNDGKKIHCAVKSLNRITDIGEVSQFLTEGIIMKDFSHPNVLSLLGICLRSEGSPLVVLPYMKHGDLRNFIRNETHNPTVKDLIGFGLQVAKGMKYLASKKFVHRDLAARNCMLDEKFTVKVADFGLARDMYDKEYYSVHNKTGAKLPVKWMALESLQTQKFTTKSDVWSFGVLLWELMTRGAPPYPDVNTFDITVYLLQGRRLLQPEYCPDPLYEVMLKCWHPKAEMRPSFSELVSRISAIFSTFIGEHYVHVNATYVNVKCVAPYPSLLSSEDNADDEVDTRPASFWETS
Description: (§1) In one particular embodiment, cells from a NSCLC cell line (e.g., HCC827 cells or other gefitinib sensitive lung adenocarcinoma cells with EGFR-activating mutations; American Type Culture Collection, Manassas, Va.) were treated with different concentrations of ligand or signaling molecule (e.g., the ligand for the cMET receptor, HGF). The levels of expression and activation of proteins associated with cancer were measured in the treated cells with high sensitivity using CEER arrays. By varying the amount of ligand exposed to the cancer cells, the expression profiles of the analyzed proteins were correlated to the amount of ligand used to stimulate the cells. Dose response curves were used to calculate EC50 values which can be used to interpret the inhibition and activation states of the analyzed proteins.
(§2) FIG. 10 illustrates the difference in protein expression in HCC827 cells following HGF stimulation. […] FIG. 10E illustrates that HGF and cMET binding interferes with HER3 activation, and HER1 and HER2 to a lesser extent (see also, FIGS. 10C and 10D).

[5] = test system: HER2; assay: CEER detection of activated HER2 in HCC827 cells treated with HGF; format: cell-based; conditions: HGF stimulation, judged by increased EC50
Description: as §1, §2

[6] = test system: HER1; assay: CEER detection of activated HER1 in HCC827 cells treated with HGF; format: cell-based; conditions: HGF stimulation, judged by increased EC50
Description: as §1, §2

[7] = test system: HER3; assay: CEER detection of activated HER3 in HCC827 cells treated with HGF; format: cell-based; conditions: HGF stimulation, judged by increased EC50
Description: as §1, §2

[8] = early Phase I evaluation; cited from earlier work

In the case of COc1cc2c(Oc3ccc(NC(=O)C4(C(=O)Nc5ccc(F)cc5)CC4)cc3F)ccnc2cc1OCCCN1CCOCC1 [GSK 1363089/XL880], the oral bioavailability [1] is given as “good oral bioavailability” and the “CYP450 substrate / inhibitor / inducer status” value [2] is given as “substrate, but not an inhibitor or inducer”.
In the case of Cn1cc(-c2ccc3nnc(Sc4ccc5ncccc5c4)n3n2)cn1 [SGX523], the antitumor activity [3] is given as “potent antitumor activity” and the toxicity [3] is given as “no overt toxicity”.
In the case of “HGF: hepatocyte growth factor, the ligand for the cMET receptor”, the cMET activation [4] is reported as “activated cMET effectively”, the HER2 activation [5] is reported as “decreased” and the HER1 activation [6] is reported as “decreased”. The HER3 activation [7] was “decreased”.
In the case of CN(C[C@@H]1COCCO1)S(=O)(=O)Nc1ccc2ccc3ncc(-c4cnn(C)c4)cc3c(=O)c2c1 [MK-2461], the tolerability [8] is listed as “well tolerated”.
